Data on 14 compounds can be found in article PMC9318862, “Cytotoxic Effects on Breast Cancer Cell Lines of Chalcones Derived from a Natural Precursor and Their Molecular Docking Analysis” (Molecules, 2022).

In one experiment the test system is MDA-MB-231 cells. Briefly: Cytotoxic assay, IC50 in MDA-MB-231 cells. Format: cell-based. The conditions noted are these: Homo sapiens, mean ± SD, read-out: IC50 Cell Lines MDA-MB-231. The procedure:
(§1) The cytotoxic activity of all the synthesized chalcones was tested against breast cancer cell lines using an MTT cell proliferation assay. All compounds were tested in vitro at 10 and 100 µM using the cell viability assay in MCF-7 for 24 h in normoxia (Table 1). Firstly, the cytotoxic effect of the chalcone compounds modified in ring B and with an unsubstituted ring A was tested (compounds 3–8). […] Secondly, compounds with modifications in the A and B rings (9–13) were tested.
(§2) The cell culture methodology was used with modifications. Three human breast cancer cell lines were used for this study: MCF-7 (ATCC® HTB-22™), ZR-75-1 (ATCC® CRL-1500™), MDA-MB-231 (ATCC® HTB-26™), and the non-tumorigenic MCF-10F (ATCC® CRL-10318™) cell lines. Cells were cultured in specific media according to ATCC recommendations. The incubation condition was established at 37 °C, a complete humid atmosphere, 5% CO2 and 95% O2.
(§3) The cytotoxic effect of the chalcone compounds was assessed in MCF-10F cells in a dose- and time-dependent manner. Cells (1 × 10^4 and 4 × 10^4) cultured under normoxic conditions were seeded in 24-well plates in quadruplicate and incubated for 4 days until 70% confluence. After this incubation period, cells were exposed to concentrations of the synthesized compounds dissolved in ethanol (50%) at concentrations ranging from 0 to 96.8 µg/mL (dissolved in 0.5% DMSO). Doxorubicin was used as the control drug, and for all data a p < 0.05 value was considered statistically significant. Cell viability was assessed using a neutral red uptake assay after 24 h of treatment.

The test system of another experiment is ZR-75-1 cells. Briefly: Cytotoxic assay, IC50 in ZR-75-1 cells. Format: cell-based. The conditions noted are these: Homo sapiens, mean ± SD, read-out: IC50 Cell Lines ZR-75-1.
The next experiment relates to MCF-10F cells. Briefly: Cytotoxic assay, IC50 in non-tumorigenic MCF-10F cells. The experiment is classed as cell-based, human. Particulars: MCF-10F non-tumorigenic cells, mean ± SD, read-out: IC50 Cell Lines MCF-10F. The procedure:
as §2, §3

For experiment [1], the system named is MCF-7 cells. Briefly: Cytotoxic assay, IC50 in MCF-7 cells. The experiment is classed as cell-based. The conditions noted are these: Homo sapiens, MCF7, mean ± SD, read-out: IC50 Cell Lines MCF-7.
In experiment [2] the test system is MCF-7 cells. Briefly: Cell viability of MCF-7 cells after treatment at 10 and 100 µM (MTT cell proliferation assay, 24 h, normoxia). The experiment is classed as cell-based. The conditions noted are these: Homo sapiens, mean ± SD; for viability at 10 µM: MCF7, 10 µM; for viability at 100 µM: MCF7, 100 µM. As to the method: as §1
The cell culture methodology was used with modifications. Three human breast cancer cell lines were used for this study: MCF-7 (ATCC® HTB-22™), ZR-75-1 (ATCC® CRL-1500™), MDA-MB-231 (ATCC® HTB-26™), and the non-tumorigenic MCF-10F (ATCC® CRL-10318™) cell lines. Cells were cultured in specific media according to ATCC recommendations. The incubation condition was established at 37 °C, a complete humid atmosphere, 5% CO2 and 95% […]. […]

Experiment [3] relates to MCF-7 cells. On the set-up: method as in PMID 27814565. Particulars: read-out: IC50 on the growth of the MCF-7 cells; cited from earlier work.

Read-outs that look alike come from different tables or passages of the source.

On to `CC(=O)c1ccc(O)c(CC=C(C)C)c1` [Compound 1b], for which the IC50 (commonly the concentration needed to halve the response being measured) with MDA-MB-231 cells came out at 74 ± 8.72 µM; with ZR-75-1 cells, 61.6 ± 14.1 µM; in the experiment on MCF-10F cells (Homo sapiens, MCF-10F), 79.5 ± 9.9 µM; in the experiment on MCF-7 cells [1], 79.4 ± 12.2 µM.

Consider `O=C(/C=C/c1ccccc1)c1ccccc1` [Compound 3], for which the IC50 in the experiment on MDA-MB-231 cells is above 80 µM; with ZR-75-1 cells it was above 80 µM; in the experiment on MCF-10F cells (Homo sapiens, MCF-10F) it was above 80 µM; in the experiment on MCF-7 cells [1], above 80 µM. In addition, the viability (usually a read-out of living cells in per cent, often relative to untreated cells) at 10 µM in the experiment on MCF-7 cells [2] worked out at 81.3 ± 9.4%. Further, the viability at 100 µM in the experiment with MCF-7 cells [2] was 65.2 ± 5.7%.

As to `COc1ccc(/C=C/C(=O)c2ccccc2)cc1` [Compound 4], the 50% inhibitory concentration (IC50) in the experiment with MDA-MB-231 cells, in the experiment on ZR-75-1 cells, in the experiment with MCF-10F cells (Homo sapiens) and with MCF-7 cells [1] was above 80 µM in each case. The compound also had a viability at 10 µM in the experiment with MCF-7 cells [2] of 74.5 ± 10.3%. In the experiment on MCF-7 cells [2], this compound had a viability at 100 µM of 55.1 ± 5.1%.

`CN(C)c1ccc(/C=C/C(=O)c2ccccc2)cc1` [Compound 5]: the half-inhibitory concentration (IC50) with MDA-MB-231 cells was 79.8 ± 9.31 µM; with ZR-75-1 cells, 76.5 ± 12.6 µM; in the experiment on MCF-10F cells (Homo sapiens, MCF-10F) it was above 80 µM; with MCF-7 cells [1], above 80 µM. This compound gave a viability at 10 µM in the experiment on MCF-7 cells [2] of 47.6 ± 3.2%. Further, in the experiment on MCF-7 cells [2], the viability at 100 µM came out at 52.4 ± 4.3%.

Regarding `COc1cc(/C=C/C(=O)c2ccccc2)ccc1O` [Compound 6], the IC50 with MDA-MB-231 cells is 52 ± 4.53 µM; in the experiment with ZR-75-1 cells it was 43.2 ± 6.58 µM; in the experiment with MCF-10F cells (Homo sapiens, MCF-10F), 72.6 ± 10.3 µM; in the experiment on MCF-7 cells [1], 21.6 ± 2.71 µM. In the experiment on MCF-7 cells [2], the viability at 10 µM turned out to be 47 ± 4.9%. Also, the viability at 100 µM with MCF-7 cells [2] was 4.9 ± 0.6%.

As to `O=C(/C=C/c1ccc2c(c1)OCO2)c1ccccc1` [Compound 7], the IC50 with MDA-MB-231 cells was above 80 µM; in the experiment with ZR-75-1 cells, above 80 µM; with MCF-10F cells (Homo sapiens, MCF-10F) it was above 80 µM; in the experiment on MCF-7 cells [1] it was above 80 µM. Besides, in the experiment on MCF-7 cells [2], the viability at 10 µM is 43.5 ± 3.4%. Further, the viability at 100 µM in the experiment with MCF-7 cells [2] was 38.6 ± 4.3%.

On to `COc1cc(OC)c(OC)cc1/C=C/C(=O)c1ccccc1` [Compound 8], for which the half-inhibitory concentration (IC50) is above 80 µM with MDA-MB-231 cells; above 80 µM in the experiment with ZR-75-1 cells; above 80 µM with MCF-10F cells (Homo sapiens, MCF-10F); above 80 µM in the experiment on MCF-7 cells [1]. Moreover, the viability at 10 µM in the experiment on MCF-7 cells [2] worked out at 100 ± 12.6%. In the experiment on MCF-7 cells [2], this compound came in with a viability at 100 µM of 94.4 ± 11.6%.

Turning to `CC(C)=CCc1cc(C(=O)/C=C/c2ccccc2)ccc1O` [Compound 9], the IC50 in the experiment with MDA-MB-231 cells is above 80 µM; in the experiment on ZR-75-1 cells, above 80 µM; in the experiment on MCF-10F cells (Homo sapiens, MCF-10F), above 80 µM; in the experiment on MCF-7 cells [1], above 80 µM. The same compound displayed a viability at 10 µM in the experiment on MCF-7 cells [2] of 93.8 ± 7.9%. The compound further came in with a viability at 100 µM in the experiment on MCF-7 cells [2] of 82.5 ± 6.1%.

`COc1ccc(/C=C/C(=O)c2ccc(O)c(CC=C(C)C)c2)cc1` [Compound 10]: the IC50 in the experiment with MDA-MB-231 cells is 78 ± 4.34 µM; in the experiment on ZR-75-1 cells, above 80 µM; with MCF-10F cells (Homo sapiens, MCF-10F), above 80 µM; with MCF-7 cells [1], above 80 µM. Also, in the experiment on MCF-7 cells [2], the viability at 10 µM stood at 73.7 ± 6.7%. In the experiment with MCF-7 cells [2], the viability at 100 µM was found to be 62.3 ± 7.6%.

Consider `CC(C)=CCc1cc(C(=O)/C=C/c2ccc(N(C)C)cc2)ccc1O` [Compound 11], for which the IC50 in the experiment with MDA-MB-231 cells was 72.3 ± 2.33 µM; in the experiment on ZR-75-1 cells, 78.2 ± 6.87 µM; with MCF-10F cells (Homo sapiens, MCF-10F), 78.4 ± 21.3 µM; with MCF-7 cells [1], above 80 µM. The compound further had a viability at 10 µM in the experiment with MCF-7 cells [2] of 42 ± 4.3%. Moreover, in the experiment with MCF-7 cells [2], the viability at 100 µM turned out to be 42.4 ± 3.9%.

Consider `COc1cc(/C=C/C(=O)c2ccc(O)c(CC=C(C)C)c2)ccc1O` [Compound 12, (E)-1-(4-hydroxy-3-(3-methylbut-2-en-1-yl)phenyl)-3-(4-hydroxy-3-methoxyphenyl)prop-2-en-1-one], for which the IC50 in the experiment with MDA-MB-231 cells stood at 6.12 ± 0.84 µM; in the experiment with ZR-75-1 cells, 9.4 ± 1.74 µM; in the experiment with MCF-10F cells (Homo sapiens, MCF-10F), 95.8 ± 1.52 µM; in the experiment with MCF-10F cells, 75.8 ± 11.5 µM; in the experiment on MCF-7 cells [1], 4.19 ± 1.04 µM. Also, the viability at 10 µM in the experiment with MCF-7 cells [2] stood at 10.3 ± 0.6%. For the same compound, in the experiment with MCF-7 cells [2], the viability at 100 µM came to 3.6 ± 0.9%.

With `COc1cc(OC)c(OC)cc1/C=C/C(=O)c1ccc(O)c(CC=C(C)C)c1` [Compound 13], the IC50 was 18.1 ± 1.65 µM with MDA-MB-231 cells; 8.75 ± 2.01 µM in the experiment on ZR-75-1 cells; 95.1 ± 1.97 µM in the experiment on MCF-10F cells (Homo sapiens, MCF-10F); 75.1 ± 12 µM with MCF-10F cells; 3.3 ± 0.92 µM with MCF-7 cells [1]. In addition, in the experiment with MCF-7 cells [2], the viability at 10 µM is 32.4 ± 4.5%. This compound also came in with a viability at 100 µM with MCF-7 cells [2] of 3.1 ± 0.4%.

For `COc1cccc2c1C(=O)c1c(O)c3c(c(O)c1C2=O)C[C@@](O)(C(=O)CO)C[C@@H]3O[C@H]1C[C@H](N)[C@H](O)[C@H](C)O1` [Doxorubicin, reference compound], the half-inhibitory concentration (IC50) with MDA-MB-231 cells stood at 47.6 ± 5.74 µM; in the experiment with ZR-75-1 cells, 79.8 ± 11 µM; with MCF-10F cells (Homo sapiens, MCF-10F) it was 83.9 ± 8.99 µM; in the experiment on MCF-7 cells [1], 111 ± 8.95 µM. The viability at 10 µM in the experiment with MCF-7 cells [2] is 49.3 ± 2.2%. The same compound yielded a viability at 100 µM with MCF-7 cells [2] of 57.6 ± 2.9%.

Take `C=C(C)C(O)Cc1c(O)ccc(C(=O)/C=C/c2ccc(O)c(CC=C(C)C)c2)c1O` (stereo not shown) [Paratocarpin E]: in the experiment on MCF-7 cells [3], the 50% inhibitory concentration (IC50) is 19.6 µM.
